From patent publication US11730788B2, “Use of peptides as therapeutic agent for autoimmune diseases and bone diseases” (KINE SCIENCES CO., LTD., priority 2017, dated 2023)

Key:
[1] = tested on: collagen-induced arthritis (CIA) mouse model; experiment: Rheumatoid arthritis treatment effect in collagen-induced arthritis (CIA) mouse model; assay type: in vivo, DBA/1J mouse; details: intraperitoneal, 3 times a week after second immunization; versus vehicle PBS; similar efficacy to positive control MTX
Description: In order to confirm a rheumatoid arthritis improvement effect of the peptides prepared in Example 1, a rheumatoid arthritis mouse model was prepared with reference to a known literature (Nat Protoc. 2007; 2 (5): 1269-75.).
Specifically, a CIA mouse model is a mouse model most commonly used in a rheumatoid arthritis animal test as an autoimmune disease arthritis model having characteristics similar to human rheumatoid arthritis. In the CIA mouse model, bovine type II collagen (Chondrex, USA) was mixed and emulsified with a Freund's complete adjuvant (Chondrex, USA) at 1:1, and then first immunization was performed by injecting 50 μl of the emulsified collagen solution intradermally into a 6-week-old DBA/1J mouse tail. On 2 weeks after the first immunization, bovine type II collagen was mixed and emulsified with a Freund's incomplete adjuvant (Chondrex, USA) at 1:1, and then second immunization (boosting) was performed by injecting 50 μl of the emulsified collagen solution induced) intradermally into the mouse tail. After the second immunization, each peptide was intraperitoneally administered 3 times a week from the following day to observe a therapeutic effect of the peptides for rheumatoid arthritis.
In order to examine the progression of rheumatoid arthritis according to the peptide treatment of the present invention, the severity of rheumatoid arthritis over time was evaluated and measured by a rheumatoid arthritis progress index.
At this time, the arthritis progress index was evaluated as Points 0 to 4 per leg in accordance with the arthritis progress evaluation criteria by Rossoliniec, etc. in Table 2 below and shown to total Points 0 to 16 (sum of four legs). Thereafter, an average value of the results evaluated by the two observers was calculated to quantify the severity of arthritis.

[2] = tested on: Th17 cell differentiation of naive CD4+ T cells; experiment: Th17 cell differentiation inhibitory effect (CD4+IL-17+ T cell population); assay type: cell-based, mouse; details: IL-6 20 ng/ml + TGF-beta 5 ng/ml + TCR activation; peptide 10 ng/ml to 1000 ng/ml, 3 days; non-induced 1.2%, induced 3.14%
Description: In order to confirm the efficacy of the synthetic peptides prepared in Example 1 to inhibit Th17 cell differentiation, naive CD4^+ T cells extracted from lymph nodes of the mouse were treated with IL-6 20 ng/ml and TGF-beta 5 ng/ml together with TCR activation to induce differentiation into Th17 cells.
At the same time, three peptides Pep1, Pep6, and Pep8 disclosed in Table 2 of Test Example 1 were treated at a concentration of 10 ng/ml to 1000 ng/ml, respectively. Then, after incubation for 3 days, CD4+IL-17+ T cell population was analyzed.

IL-6 = experiment: Inflammatory cytokine IL-6 reduction effect (IL-6 ELISA, THP-1 derived M1 macrophages); assay type: cell-based; details: LPS 10 ng/ml + IFN-gamma 20 ng/ml, peptide 100 ng/ml, 24 hours, similar to positive control MTX
Description: In order to confirm the efficacy of the synthetic peptides prepared in Example 1 to inhibit inflammatory cytokine IL-6 secretion, a THP-1 monocytic cell line was treated with PMA 50 ng/ml for 48 hours to be differentiated into M1 macrophages. After treatment with LPS 10 ng/ml and IFN-gamma 20 ng/ml to the differentiated M1 macrophages, a positive control group MTX or the synthetic peptides of the present invention were co-treated at a concentration of 100 ng/ml, respectively. Thereafter, after incubation for 24 hours, IL-6 ELISA was performed using a cultured sup.

Substance	arthritis improvement (arthritis score, total Points 0 to 16) [1]	ratio of Th17 cells (CD4+IL-17+ T cell population) [2]	IL-6 secretion (ELISA of culture sup) (IL-6)
KDAKDA [Pep4]	efficacy of arthritis improvement was shown	–	–
KDAKDAKDA [Pep8]	efficacy of arthritis improvement was shown	reduced similarly to the group that did not induce differentiation	significantly reduced
KDGKDG [Pep1]	efficacy of arthritis improvement was shown	reduced similarly to the group that did not induce differentiation	–
KDGKDGKDG [Pep5]	–	–	significantly reduced
KEAKEA [Pep3]	–	–	significantly reduced
KEAKEAKEA [Pep7]	efficacy of arthritis improvement was shown	–	significantly reduced
KEGKEG [Pep2]	–	–	significantly reduced
KEGKEGKEG [Pep6]	efficacy of arthritis improvement was shown	reduced similarly to the group that did not induce differentiation	–
